22 compounds from patent US20230373930A1, “AMINOIMIDAZOLE FPR2 AGONISTS” (BRISTOL-MYERS SQUIBB COMPANY, priority 2020, published 2023) can be followed below.

In one test the target is T1, human FPR2 (Homo sapiens, UniProt P25090).
T1 sequence (P25090 1-351): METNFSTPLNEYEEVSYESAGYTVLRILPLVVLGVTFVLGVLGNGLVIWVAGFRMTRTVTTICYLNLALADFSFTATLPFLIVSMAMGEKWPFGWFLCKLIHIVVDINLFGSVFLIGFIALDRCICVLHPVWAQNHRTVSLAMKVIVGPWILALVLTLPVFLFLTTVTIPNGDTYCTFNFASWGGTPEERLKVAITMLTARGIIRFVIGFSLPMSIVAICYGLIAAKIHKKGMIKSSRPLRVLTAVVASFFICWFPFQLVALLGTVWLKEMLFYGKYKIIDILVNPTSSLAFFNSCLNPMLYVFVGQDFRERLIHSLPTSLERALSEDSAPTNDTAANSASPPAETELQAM
The experiment in a line: FPR2 cyclic adenosine monophosphate (cAMP) assay. The format is cell-based. Conditions: CHO cells overexpressing human FPR2; forskolin 5 μM; inhibition of cAMP production; HTRF; read-out: hFPR2 cAMP2 EC50. How it is done: (§1) FPR2 and FPR1 Cyclic Adenosine Monophosphate (cAMP) Assays. A mixture of forskolin (5 μM final for FPR2 or 10 μM final for FPR1) and IBMX (200 μM final) were added to 384-well Proxiplates (Perkin-Elmer) pre-dotted with test compounds in DMSO (1% final) at final concentrations in the range of 0.020 nM to 100 μM. Chinese Hamster Ovary cells (CHO) overexpressing human FPR1 or human FPR2 receptors were cultured in F-12 (Ham's) medium supplemented with 10% qualified FBS, 250 μg/ml zeocin and 300 μg/ml hygromycin (Life Technologies). Reactions were initiated by adding 2,000 human FPR2 cells per well or 4,000 human FPR1 cells per well in Dulbecco's PBS (with calcium and magnesium) (Life Technologies) supplemented with 0.1% BSA (Perkin-Elmer). The reaction mixtures were incubated for 30 min at room temperature. The level of intracellular cAMP was determined using the HTRF HiRange cAMP assay reagent kit (Cisbio) according to manufacturer's instruction. Solutions of cryptate conjugated anti-cAMP and d2 flurorophore-labelled cAMP were made in a supplied lysis buffer separately. Upon completion of the reaction, the cells were lysed with equal volume of the d2-cAMP solution and anti-cAMP solution. After a 1-h room temperature incubation, time-resolved fluorescence intensity was measured using the Envision (Perkin-Elmer) at 400 nm excitation and dual emission at 590 nm and 665 nm. A calibration curve was constructed with an external cAMP standard at concentrations ranging from 1 μM to 0.1 μM by plotting the fluorescent intensity ratio from 665 nm emission to the intensity from the 590 nm emission against cAMP concentrations. The potency and activity of a compound to inhibit cAMP production was then determined by fitting to a 4-parametric logistic equation from a plot of cAMP level versus compound concentrations.

The target of another test is T2, human FPR1 (Homo sapiens, UniProt P21462).
T2 sequence (P21462 1-350): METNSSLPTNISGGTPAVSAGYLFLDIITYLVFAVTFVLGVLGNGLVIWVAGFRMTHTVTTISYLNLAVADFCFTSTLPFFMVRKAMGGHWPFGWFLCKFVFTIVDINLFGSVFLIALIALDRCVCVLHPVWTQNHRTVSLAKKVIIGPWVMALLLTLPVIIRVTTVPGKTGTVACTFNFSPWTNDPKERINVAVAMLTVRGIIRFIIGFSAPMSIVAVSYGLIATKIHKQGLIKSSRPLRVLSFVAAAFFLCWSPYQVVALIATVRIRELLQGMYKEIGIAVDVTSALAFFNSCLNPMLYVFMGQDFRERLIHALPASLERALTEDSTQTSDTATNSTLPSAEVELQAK
The test can be described thus: FPR1 cyclic adenosine monophosphate (cAMP) assay. The format is cell-based. Conditions: CHO cells overexpressing human FPR1; forskolin 10 μM; inhibition of cAMP production; HTRF; read-out: hFPR1 cAMP2 EC50. How it is done:
as §1

With `COc1ccc(-n2cc(-c3ccnc(Cl)c3)nc2NC(=O)c2ccc(OC(F)F)cc2)cc1` [Example 20, N-[4-(2-Chloropyridin-4-yl)-1-(4-methoxyphenyl)-1H-imidazol-2-yl]-4-(difluoromethoxy)benzamide], the EC50 was determined as 5 nM on human FPR2 and 19 nM at human FPR1.

`COc1ccc(-n2cc(C(F)(F)F)nc2NC(=O)c2ccc(OC(F)F)cc2)cc1` [Example 43, 4-(Difluoromethoxy)-N-[1-(4-methoxyphenyl)-4-(trifluoromethyl)-1H-imidazol-2-yl]benzamide]: the EC50 on human FPR2 amounted to 10 nM; at human FPR1, 40 nM.

With `COc1ccc(-n2cc(-c3ccc4sccc4c3)nc2NC(=O)c2ccc(OC(F)F)cc2)cc1` [Example 22, N-[4-(1-Benzothiophen-5-yl)-1-(4-methoxyphenyl)-1H-imidazol-2-yl]-4-(difluoromethoxy)benzamide], the EC50 at human FPR2 was 86 nM; at human FPR1, 140 nM.

`COc1ccc(-n2cc(-c3nc4ccccc4s3)nc2NC(=O)c2ccc(OC(F)F)cc2)cc1` [Example 23, N-[4-(1,3-Benzothiazol-2-yl)-1-(4-methoxyphenyl)-1H-imidazol-2-yl]-4-(difluoromethoxy)benzamide]: the EC50 at human FPR2 was determined as 28 nM; on human FPR1, 44 nM.

For the compound `COc1cc(F)c(-n2cc(C3CCN(C(=O)CCC(N)=O)CC3)nc2NC(=O)c2ccc(OC(F)F)cc2)c(F)c1` [Example 67, N-{4-[1-(3-Carbamoylpropanoyl)piperidin-4-yl]-1-(2,6-difluoro-4-methoxyphenyl)-1H-imidazol-2-yl}-4-(difluoromethoxy)benzamide], the EC50 at human FPR2 was found to be 54 nM; at human FPR1, 83 nM.

`CCNC(=O)N1CCC(c2cn(-c3c(F)cc(OC)cc3F)c(NC(=O)c3ccc(OC(F)F)cc3)n2)CC1` [Example 66, 4-[1-(2,6-Difluoro-4-methoxyphenyl)-2-[4-(difluoromethoxy)benzamido]-1H-imidazol-4-yl]-N-ethylpiperidine-1-carboxamide]: the EC50 turned out to be 28 nM on human FPR2 and 540 nM at human FPR1.

For `COc1cc(F)c(-n2cc(C(=O)NCc3cccnc3)nc2NC(=O)c2ccc(OC(F)F)cc2)c(F)c1` [Example 47, 1-(2,6-Difluoro-4-methoxyphenyl)-2-[4-(difluoromethoxy)benzamido]-N-[(pyridin-3-yl)methyl]-1H-imidazole-4-carboxamide], the EC50 on human FPR2 worked out at 35 nM; at human FPR1 it was 110 nM.

For `COc1cc(F)c(-n2cc(-c3ccc4ccccc4c3)nc2NC(=O)c2ccc(OC(F)F)cc2)c(F)c1` [Example 9, N-[1-(2,6-Difluoro-4-methoxyphenyl)-4-(naphthalen-2-yl)-1H-imidazol-2-yl]-4-(difluoromethoxy)benzamide], the EC50 is 220 nM at human FPR2 and 460 nM at human FPR1.

With `COc1cc(F)c(-n2cc(-c3ccccc3)nc2NC(=O)c2ccc(OC(F)F)cc2)c(F)c1` [Example 1, N-[1-(2,6-Difluoro-4-methoxyphenyl)-4-phenyl-1H-imidazol-2-yl]-4-(difluoromethoxy)benzamide], the values for the EC50 at human FPR2 and on human FPR1 were 4 nM and 200 nM, respectively.

Take `COc1cc(F)c(-n2cc(Cc3nnc(C)o3)nc2NC(=O)c2ccc(OC(F)F)cc2)c(F)c1` [Example 73, N-(1-(2,6-Difluoro-4-methoxyphenyl)-4-((5-methyl-1,3,4-oxadiazol-2-yl)methyl)-1H-imidazol-2-yl)-4-(difluoromethoxy)benzamide]: the values for the EC50 on human FPR2 and on human FPR1 were 23 nM and 300 nM, respectively.

For the compound `COc1cc(F)c(-n2cc(C3CCNCC3)nc2NC(=O)c2ccc(OC(F)F)cc2)c(F)c1` [Example 63, N-[1-(2,6-Difluoro-4-methoxyphenyl)-4-(piperidin-4-yl)-1H-imidazol-2-yl]-4-(difluoromethoxy)benzamide], the EC50 came to 10 nM at human FPR2 and 710 nM at human FPR1.

Turning to `COc1cc(F)c(-n2cc(C3CCOCC3)nc2NC(=O)c2ccc(OC(F)F)cc2)c(F)c1` [Example 41, N-[1-(2,6-Difluoro-4-methoxyphenyl)-4-(oxan-4-yl)-1H-imdiazol-2-yl]-4-(difluoromethoxy)benzamide], the EC50 at human FPR2 was found to be 26 nM; at human FPR1, 230 nM.

Consider `COc1cc(F)c(-n2cc(C3CC4(CNC4)C3)nc2NC(=O)c2ccc(OC(F)F)cc2)c(F)c1` [Example 75, N-(1-(2,6-Difluoro-4-methoxyphenyl)-4-(2-azaspiro[3.3]heptan-6-yl)-1H-imidazol-2-yl)-4-(difluoromethoxy)benzamide], for which the EC50 was 23 nM on human FPR2 and greater than 10000 nM on human FPR1.

On to `COc1ccc(-n2cc(-c3nccs3)nc2NC(=O)c2ccc(OC(F)F)cc2)cc1` [Example 24, 4-(Difluoromethoxy)-N-[1-(4-methoxyphenyl)-4-(1,3-thiazol-2-yl)-1H-imidazol-2-yl]benzamide], for which the half-maximal effective concentration (EC50) worked out at 9 nM at human FPR2 and 110 nM at human FPR1.

Take `COc1cc(F)c(-n2cc(C(=O)NCc3cnc(C)cn3)nc2NC(=O)c2ccc(OC(F)F)cc2)c(F)c1` [Example 56, 1-(2,6-Difluoro-4-methoxyphenyl)-2-[4-(difluoromethoxy)benzamido]-N-[(5-methylpyrazin-2-yl)methyl]-1H-imidazole-4-carboxmaide]: the results for the EC50 at human FPR2 and at human FPR1 were 89 nM and 110 nM, respectively.

Turning to `COc1cc(F)c(-n2cc(C(=O)N3CCCC(O)C3)nc2NC(=O)c2ccc(OC(F)F)cc2)c(F)c1` (centres unmarked) [Example 51, N-[1-(2,6-Difluoro-4-methoxyphenyl)-4-(3-hydroxypiperidine-1-carbonyl)-1H-imidazol-2-yl]-4-(difluoromethoxy)benzamide], the EC50 at human FPR2 amounted to 83 nM; on human FPR1 it was 2900 nM.

On to `COc1cc(F)c(-n2cc(C(=O)N3CCNC(=O)C3)nc2NC(=O)c2ccc(OC(F)F)cc2)c(F)c1` [Example 58, N-[1-(2,6-Difluoro-4-methoxyphenyl)-4-(3-oxopiperazine-1-carbonyl)-1H-imidazol-2-yl]-4-(difluoromethoxy)benzamide], for which the EC50 on human FPR2 worked out at 170 nM; at human FPR1, 3400 nM.

With `COc1cc(F)c(-n2cc(-c3ccc(C(F)(F)F)cc3)nc2NC(=O)c2ccc(OC(F)F)cc2)c(F)c1` [Example 6, N-[1-(2,6-Difluoro-4-methoxyphenyl)-4-[4-(trifluoromethyl)phenyl]-1H-imidazol-2-yl]-4-(difluoromethoxy)benzamide], the EC50 at human FPR2 was found to be 76 nM; at human FPR1 it was 120 nM.

Consider `COc1ccc(-n2cc(C(=O)N3CCNCC3)nc2NC(=O)c2ccc(OC(F)F)cc2)cc1` [Example 45, 4-(Difluoromethoxy)-N-[1-(4-methoxyphenyl)-4-(piperazine-1-carbonyl)-1H-imidazol-2-yl]benzamide], for which the figures for the EC50 on human FPR2 and at human FPR1 were 14 nM and 710 nM, respectively.

Turning to `COc1cc(F)c(-n2cc(C(=O)Nc3cn[nH]c3)nc2NC(=O)c2ccc(OC(F)F)cc2)c(F)c1` [Example 62, 1-(2,6-Difluoro-4-methoxyphenyl)-2-[4-(difluoromethoxy)benzamido]-N-(1H-pyrazol-4-yl)-1H-imidazole-4-carboxamide], the figures for the EC50 at human FPR2 and on human FPR1 were 32 nM and 830 nM, respectively.

`COc1cccc(-c2cn(-c3c(F)cc(OC)cc3F)c(NC(=O)c3ccc(OC(F)F)cc3)n2)c1` [Example 3, N-[1-(2,6-Difluoro-4-methoxyphenyl)-4-(3-methoxyphenyl)-1H-imidazol-2-yl]-4-(difluoromethoxy)benzamide]: the results for the EC50 on human FPR2 and on human FPR1 were 8 nM and 88 nM, respectively.

Regarding `COc1cc(F)c(-n2cc(-c3ccc(OC(F)F)cc3)nc2NC(=O)c2ccc(OC(F)F)cc2)c(F)c1` [Example 7, N-[1-(2,6-Difluoro-4-methoxyphenyl)-4-[4-(difluoromethoxy)phenyl]-1H-imidazol-2-yl]-4-(difluoromethoxy)benzamide], the EC50 turned out to be 33 nM on human FPR2 and 190 nM at human FPR1.
